Results on 17 compounds are retold here after patent publication US10618903B2, “Heteroaryl substituted aminopyridine compounds” (BRISTOL-MYERS SQUIBB COMPANY, priority 2015, dated 2020).

Series [1] in a line: Caco Permeability Assay. The following applies: human, Caco-2, Caco-2 cells, 3 μM compound. The series is classed as in vitro ADME.
Series [2] has as its target IRAK4 (Homo sapiens (Human), UniProt Q9NWZ3). The series is described as follows: IRAK4 Inhibition Assay. The format is biochemical. Particulars: ATP 500 μM; IRAK4 0.6 nM. The method, boiled down: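 Mobility-shift kinase assay: 0.6 nM IRAK4, 500 μM ATP, 1.5 μM fluorescent peptide, 60 min, room temperature. Percent inhibition was normalised between enzyme-free and DMSO-only wells.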

Series [3] relates to IL-6 levels in human whole blood stimulated with a TLR2 agonist. The series is described as follows: IRAK4 Whole Blood Assay (lipoteichoic acid/TLR2-stimulated IL-6). The series is classed as cell-based. The following applies: lipoteichoic acid 10 μg/mL, IL-6 readout. In a few lines: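 IL-6 was quantified by cytometric bead assay in supernatants of human blood (ACD-A) stimulated for 5 h with lipoteichoic acid at 10 μg/mL final. Compound exposure preceded stimulation for 60 min at 37 °C, 5% CO2.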

As a reminder, the Papp is a coefficient for how fast a substance crosses the barrier. A lower Papp goes with slow passage. One may read the IC50 as the concentration needed to halve the response being measured. A word on the EC50: it is the concentration needed to bring the measured effect to its halfway point.

A value given as a limit tells only on which side of the number the result lay.

IRAK4, sequence (Q9NWZ3 whole entry): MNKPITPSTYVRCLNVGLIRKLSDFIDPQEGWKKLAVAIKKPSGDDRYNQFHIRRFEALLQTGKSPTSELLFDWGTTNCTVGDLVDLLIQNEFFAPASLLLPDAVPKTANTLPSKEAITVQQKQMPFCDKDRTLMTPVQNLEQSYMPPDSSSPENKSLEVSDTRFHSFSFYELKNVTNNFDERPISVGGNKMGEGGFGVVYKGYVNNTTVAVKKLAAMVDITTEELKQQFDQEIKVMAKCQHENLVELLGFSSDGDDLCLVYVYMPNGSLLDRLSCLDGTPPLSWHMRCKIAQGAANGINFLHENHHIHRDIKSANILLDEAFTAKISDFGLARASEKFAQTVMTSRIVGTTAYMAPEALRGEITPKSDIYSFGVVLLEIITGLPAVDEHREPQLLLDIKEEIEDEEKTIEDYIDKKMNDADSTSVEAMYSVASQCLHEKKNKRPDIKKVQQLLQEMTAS

In series [1], `CC(C)(O)[C@H](F)CNC(=O)c1cnc(-c2cnc3cc(C#N)cnn23)cc1NC1CC(F)(F)C1` [Example 195, (R)-6-(7-cyanoimidazo[1,2-b]pyridazin-3-yl)-4-((3,3-difluorocyclobutyl)amino)-N-(2-fluoro-3-hydroxy-3-methylbutyl)nicotinamide] showed a Papp at 2 h, 3 µM of 3.7 ×10⁻⁶ cm/s. Also, the IC50 in series [2] turned out to be 4 nM. In series [3] (Homo sapiens), this compound yielded an EC50 of 700 nM.

In turn, `CC(C)Nc1cc(-c2cnc3cc(C#N)cnn23)ncc1C(=O)NCC(F)C1CCNCC1` (stereo not drawn) [Example 197, 6-(7-cyanoimidazo[1,2-b]pyridazin-3-yl)-N-(2-fluoro-2-(piperidin-4-yl)ethyl)-4-(isopropylamino)nicotinamide] had a Papp at 2 h, 3 µM in series [1] of less than 1.5 ×10⁻⁶ cm/s. Moreover, the concentration for half-maximal inhibition (IC50) in series [2] turned out to be 2 nM. Further, in series [3] (Homo sapiens), the EC50 came to 280 nM.

Compound `CC1(Nc2cc(-c3cnc4cc(Cl)cnn34)ncc2C(=O)NC[C@H](F)C(C)(C)O)CC1` [Example 198, (S)-6-(7-chloroimidazo[1,2-b]pyridazin-3-yl)-N-(2-fluoro-3-hydroxy-3-methylbutyl)-4-((1-methylcyclopropyl)amino) nicotinamide] registered an apparent permeability (Papp) at 2 h, 3 µM in series [1] of 18.4 ×10⁻⁶ cm/s. Moreover, the 50% inhibitory concentration (IC50) in series [2] was determined as 1 nM. The compound also yielded a concentration giving a half-maximal response (EC50) in series [3] (Homo sapiens) of 470 nM.

`CC(C)(O)[C@H](F)CNC(=O)c1cnc(-c2cnc3cc(Cl)cnn23)cc1NC1CC(F)C1` (stereo partly drawn) [Example 199, (R)-6-(7-chloroimidazo[1,2-b]pyridazin-3-yl)-N-(2-fluoro-3-hydroxy-3-methylbutyl)-4-((3-fluorocyclobutyl)amino)nicotinamide] showed an apparent permeability coefficient (Papp) at 2 h, 3 µM in series [1] of 15.8 ×10⁻⁶ cm/s. For the same compound, in series [2], the half-maximal inhibitory concentration (IC50) came to 4 nM. In series [3] (Homo sapiens), the EC50 came out at 550 nM.

For `CC(C)(O)[C@H](F)CNC(=O)c1cnc(-c2cnc3cc(C#N)cnn23)cc1NC1CCOC1` (stereo partly drawn) [Example 201, 6-(7-cyanoimidazo[1,2-b]pyridazin-3-yl)-N—((R)-2-fluoro-3-hydroxy-3-methylbutyl)-4-((tetrahydrofuran-3-yl)amino) nicotinamide], the Papp at 2 h, 3 µM in series [1] was less than 1.5 ×10⁻⁶ cm/s. The concentration for half-maximal inhibition (IC50) in series [2] came out at 3 nM. Further, in series [3] (Homo sapiens), the response was half-maximal at 80 nM (EC50).

Regarding `CC(C)(O)[C@H](F)CNC(=O)c1cnc(-c2cnc3cc(C#N)cnn23)cc1NCCC(F)(F)F` [Example 205, (R)-6-(7-cyanoimidazo[1,2-b]pyridazin-3-yl)-N-(2-fluoro-3-hydroxy-3-methylbutyl)-4-((3,3,3-trifluoropropyl)amino)nicotinamide], in series [1], the apparent permeability coefficient (Papp) at 2 h, 3 µM was found to be 4.5 ×10⁻⁶ cm/s. Moreover, the IC50 in series [2] amounted to 4 nM. In series [3] (Homo sapiens), this compound displayed an EC50 of 210 nM.

In series [1], `CC(C)Nc1cc(-c2cnc3cc(C#N)cnn23)ncc1C(=O)NCCc1ccccn1` [Example 216, 6-(7-cyanoimidazo[1,2-b]pyridazin-3-yl)-4-(isopropylamino)-N-(2-(pyridin-2-yl)ethyl)nicotinamide] came in with an apparent permeability (Papp) at 2 h, 3 µM of 23.9 ×10⁻⁶ cm/s. The IC50 in series [2] was found to be 8 nM. This compound also had an EC50 in series [3] (Homo sapiens) of 310 nM.

Take `CC(C)Nc1cc(-c2cnc3cc(C#N)cnn23)ncc1C(=O)NCCC1(O)CCCC1` [Example 217, 6-(7-cyanoimidazo[1,2-b]pyridazin-3-yl)-N-(2-(1-hydroxycyclopentyl)ethyl)-4-(isopropylamino)nicotinamide]: the apparent permeability (Papp) at 2 h, 3 µM in series [1] was determined as 25.6 ×10⁻⁶ cm/s. In addition, the IC50 in series [2] was 2 nM. The compound further came in with a half-maximal effective concentration (EC50) in series [3] (Homo sapiens) of 300 nM.

In the case of `CC(C)(O)CCNC(=O)c1cnc(-c2cnc3cc(Cl)cnn23)cc1NC1COC1` [Example 218, 6-(7-chloroimidazo[1,2-b]pyridazin-3-yl)-N-(3-hydroxy-3-methylbutyl)-4-(oxetan-3-ylamino)nicotinamide], the Papp at 2 h, 3 µM in series [1] worked out at 2.1 ×10⁻⁶ cm/s. In series [2], the IC50 is 5 nM. Moreover, the concentration for a half-maximal effect (EC50) in series [3] (Homo sapiens) is 220 nM.

Compound `CC(C)(O)[C@H](F)CNC(=O)c1cnc(-c2cnn3cc(Cl)cnc23)cc1Nc1cnn(CC(F)(F)F)c1` [Example 226, (R)-6-(6-chloropyrazolo[1,5-a]pyrimidin-3-yl)-N-(2-fluoro-3-hydroxy-3-methylbutyl)-4-((1-(2,2,2-trifluoroethyl)-1H-pyrazol-4-yl)amino)nicotinamide] returned a Papp at 2 h, 3 µM in series [1] of 3.6 ×10⁻⁶ cm/s. Besides, in series [2], the IC50 came to 3 nM. This compound returned an EC50 in series [3] of 210 nM.

In series [1], `CC(C)(F)Cn1cc(Nc2cc(-c3cnn4cc(Cl)cnc34)ncc2C(=O)NC[C@@H](F)C(C)(C)O)cn1` [Example 227, (R)-6-(6-chloropyrazolo[1,5-a]pyrimidin-3-yl)-4-((1-(2-fluoro-2-methylpropyl)-1H-pyrazol-4-yl)amino)-N-(2-fluoro-3-hydroxy-3-methylbutyl)nicotinamide] returned a Papp at 2 h, 3 µM of 4 ×10⁻⁶ cm/s. Moreover, the half-inhibitory concentration (IC50) in series [2] worked out at 2 nM. This compound also returned an EC50 in series [3] (Homo sapiens) of 170 nM.

For the compound `CC(C)(F)Cn1ccc(Nc2cc(-c3cnn4cc(Cl)cnc34)ncc2C(=O)NC[C@@H](F)C(C)(C)O)n1` [Example 229, (R)-6-(6-chloropyrazolo[1,5-a]pyrimidin-3-yl)-4-((1-(2-fluoro-2-methylpropyl)-1H-pyrazol-3-yl)amino)-N-(2-fluoro-3-hydroxy-3-methylbutyl)nicotinamide], in series [1], the Papp at 2 h, 3 µM stood at 11.3 ×10⁻⁶ cm/s. Further, in series [2], the concentration for half-maximal inhibition (IC50) came out at 9 nM. The compound further registered an EC50 in series [3] (Homo sapiens) of 580 nM.

As to `CC(C)(O)[C@H](F)CNC(=O)c1cnc(-c2cnn3cc(C#N)cnc23)cc1Nc1ccn(CC(F)F)n1` [Example 230, (R)-6-(6-cyanopyrazolo[1,5-a]pyrimidin-3-yl)-4-((1-(2,2-difluoroethyl)-1H-pyrazol-3-yl)amino)-N-(2-fluoro-3-hydroxy-3-methylbutyl)nicotinamide], the Papp at 2 h, 3 µM in series [1] is less than 1.5 ×10⁻⁶ cm/s. Besides, the IC50 in series [2] stood at 3 nM. This compound also yielded an EC50 in series [3] (Homo sapiens) of 430 nM.

As to `CC(C)(O)[C@H](F)CNC(=O)c1cnc(-c2cnn3cc(Cl)cnc23)cc1Nc1cnn(C(F)F)c1` [Example 231, (R)-6-(6-chloropyrazolo[1,5-a]pyrimidin-3-yl)-4-((1-(difluoromethyl)-1H-pyrazol-4-yl)amino)-N-(2-fluoro-3-hydroxy-3-methylbutyl) nicotinamide], in series [1], the apparent permeability coefficient (Papp) at 2 h, 3 µM is 12.6 ×10⁻⁶ cm/s. Moreover, in series [2], the IC50 came out at 1 nM. Also, the half-maximal effective concentration (EC50) in series [3] (Homo sapiens) turned out to be 340 nM.

The compound `CCn1cc(Nc2cc(-c3cnn4cc(Cl)cnc34)ncc2C(=O)NC[C@@H](F)C(C)(C)O)cn1` [Example 232, (R)-6-(6-chloropyrazolo[1,5-a]pyrimidin-3-yl)-4-((1-ethyl-1H-pyrazol-4-yl)amino)-N-(2-fluoro-3-hydroxy-3-methylbutyl)nicotinamide] came in with an apparent permeability (Papp) at 2 h, 3 µM in series [1] of 3.7 ×10⁻⁶ cm/s. Also, in series [2], the IC50 stood at 1 nM. The compound further yielded a concentration for a half-maximal effect (EC50) in series [3] (Homo sapiens) of 140 nM.

Compound `CC(C)(F)Cn1cc(Nc2cc(-c3cnn4cc(C#N)cnc34)ncc2C(=O)NC[C@@H](F)C(C)(C)O)cn1` [Example 235, (R)-6-(6-cyanopyrazolo[1,5-a]pyrimidin-3-yl)-4-((1-(2-fluoro-2-methylpropyl)-1H-pyrazol-4-yl)amino)-N-(2-fluoro-3-hydroxy-3-methylbutyl)nicotinamide] came in with an apparent permeability (Papp) at 2 h, 3 µM in series [1] of 2.3 ×10⁻⁶ cm/s. Besides, the IC50 in series [2] came out at 2 nM. In series [3] (Homo sapiens), this compound returned an EC50 of 200 nM.

In turn, `CC(C)(O)[C@H](F)CNC(=O)c1cnc(-c2cnn3cc(C#N)cnc23)cc1Nc1cnn(CC(F)(F)F)c1` [Example 236, (R)-6-(6-cyanopyrazolo[1,5-a]pyrimidin-3-yl)-N-(2-fluoro-3-hydroxy-3-methylbutyl)-4-((1-(2,2,2-trifluoroethyl)-1H-pyrazol-4-yl)amino) nicotinamide] returned an apparent permeability coefficient (Papp) at 2 h, 3 µM in series [1] of less than 1.5 ×10⁻⁶ cm/s. In addition, in series [2], the concentration for half-maximal inhibition (IC50) is 3 nM. This compound also registered a concentration giving a half-maximal response (EC50) in series [3] of 660 nM.
